Oligonucleotides are written 5' to 3', each unit as a sugar letter and its base; * is a phosphorothioate linkage, no mark a phosphodiester; rarer units and linkages stand in square brackets, end groups in braces. Plain capitals give the bases only. Oligonucleotides are given in HELM: sugar(base)linkage, 5' to 3'; d 2'-deoxyribose, r ribose, m 2'-O-methylribose, p phosphate. ss, as = sense and antisense strand; d = 2'-deoxy (DNA); r = 2'-OH (RNA)
These substances were tested against SOST (assay: reporter assay of Huesken 2005). Conditions: siRNA.
“RNA1{r(A)p.r(A)p.r(A)p.r(U)p.r(C)p.r(A)p.r(U)p.r(C)p.r(C)p.r(C)p.r(C)p.r(G)p.r(A)p.r(G)p.r(C)p.r(U)p.r(C)p.r(G)p.r(G)p.d(T)p.d(T)}|RNA2{r(C)p.r(C)p.r(G)p.r(A)p.r(G)p.r(C)p.r(U)p.r(C)p.r(G)p.r(G)p.r(G)p.r(G)p.r(A)p.r(U)p.r(G)p.r(A)p.r(U)p.r(U)p.r(U)p.d(C)p.d(C)}$$$RNA1{StrandType:ss}|RNA2{StrandType:as}$” showed a normalised inhibition (eCFP-eYFP dual reporter) of 49.8%.
In the case of “RNA1{r(A)p.r(A)p.r(C)p.r(A)p.r(A)p.r(G)p.r(A)p.r(C)p.r(C)p.r(A)p.r(U)p.r(G)p.r(A)p.r(A)p.r(C)p.r(C)p.r(G)p.r(G)p.r(G)p.d(T)p.d(T)}|RNA2{r(C)p.r(C)p.r(C)p.r(G)p.r(G)p.r(U)p.r(U)p.r(C)p.r(A)p.r(U)p.r(G)p.r(G)p.r(U)p.r(C)p.r(U)p.r(U)p.r(G)p.r(U)p.r(U)p.d(G)p.d(T)}$$$RNA1{StrandType:ss}|RNA2{StrandType:as}$”, the normalised inhibition (eCFP-eYFP dual reporter) is reported as 69.7%.
“RNA1{r(A)p.r(A)p.r(G)p.r(A)p.r(C)p.r(G)p.r(U)p.r(G)p.r(U)p.r(C)p.r(C)p.r(G)p.r(A)p.r(G)p.r(U)p.r(A)p.r(C)p.r(A)p.r(G)p.d(T)p.d(T)}|RNA2{r(C)p.r(U)p.r(G)p.r(U)p.r(A)p.r(C)p.r(U)p.r(C)p.r(G)p.r(G)p.r(A)p.r(C)p.r(A)p.r(C)p.r(G)p.r(U)p.r(C)p.r(U)p.r(U)p.d(T)p.d(G)}$$$RNA1{StrandType:ss}|RNA2{StrandType:as}$” gave a normalised inhibition (eCFP-eYFP dual reporter) of 87.1%.
In the case of “RNA1{r(A)p.r(A)p.r(G)p.r(G)p.r(A)p.r(C)p.r(U)p.r(U)p.r(C)p.r(G)p.r(G)p.r(G)p.r(A)p.r(C)p.r(C)p.r(G)p.r(A)p.r(G)p.r(G)p.d(T)p.d(T)}|RNA2{r(C)p.r(C)p.r(U)p.r(C)p.r(G)p.r(G)p.r(U)p.r(C)p.r(C)p.r(C)p.r(G)p.r(A)p.r(A)p.r(G)p.r(U)p.r(C)p.r(C)p.r(U)p.r(U)p.d(G)p.d(A)}$$$RNA1{StrandType:ss}|RNA2{StrandType:as}$”, the normalised inhibition (eCFP-eYFP dual reporter) is reported as 58.7%.
“RNA1{r(A)p.r(C)p.r(A)p.r(A)p.r(C)p.r(A)p.r(A)p.r(G)p.r(A)p.r(C)p.r(C)p.r(A)p.r(U)p.r(G)p.r(A)p.r(A)p.r(C)p.r(C)p.r(G)p.d(T)p.d(T)}|RNA2{r(C)p.r(G)p.r(G)p.r(U)p.r(U)p.r(C)p.r(A)p.r(U)p.r(G)p.r(G)p.r(U)p.r(C)p.r(U)p.r(U)p.r(G)p.r(U)p.r(U)p.r(G)p.r(U)p.d(T)p.d(C)}$$$RNA1{StrandType:ss}|RNA2{StrandType:as}$” was tested, and the normalised inhibition (eCFP-eYFP dual reporter) was 52.2%.
“RNA1{r(A)p.r(C)p.r(C)p.r(A)p.r(U)p.r(G)p.r(A)p.r(A)p.r(C)p.r(C)p.r(G)p.r(G)p.r(G)p.r(C)p.r(G)p.r(G)p.r(A)p.r(G)p.r(A)p.d(T)p.d(T)}|RNA2{r(U)p.r(C)p.r(U)p.r(C)p.r(C)p.r(G)p.r(C)p.r(C)p.r(C)p.r(G)p.r(G)p.r(U)p.r(U)p.r(C)p.r(A)p.r(U)p.r(G)p.r(G)p.r(U)p.d(C)p.d(T)}$$$RNA1{StrandType:ss}|RNA2{StrandType:as}$” showed a normalised inhibition (eCFP-eYFP dual reporter) of 69.5%.
For “RNA1{r(A)p.r(C)p.r(C)p.r(G)p.r(G)p.r(A)p.r(G)p.r(C)p.r(U)p.r(G)p.r(G)p.r(A)p.r(G)p.r(A)p.r(A)p.r(C)p.r(A)p.r(A)p.r(C)p.d(T)p.d(T)}|RNA2{r(G)p.r(U)p.r(U)p.r(G)p.r(U)p.r(U)p.r(C)p.r(U)p.r(C)p.r(C)p.r(A)p.r(G)p.r(C)p.r(U)p.r(C)p.r(C)p.r(G)p.r(G)p.r(U)p.d(G)p.d(G)}$$$RNA1{StrandType:ss}|RNA2{StrandType:as}$”, the normalised inhibition (eCFP-eYFP dual reporter) was 83.3%.
Work on “RNA1{r(A)p.r(C)p.r(G)p.r(U)p.r(G)p.r(U)p.r(C)p.r(C)p.r(G)p.r(A)p.r(G)p.r(U)p.r(A)p.r(C)p.r(A)p.r(G)p.r(C)p.r(U)p.r(G)p.d(T)p.d(T)}|RNA2{r(C)p.r(A)p.r(G)p.r(C)p.r(U)p.r(G)p.r(U)p.r(A)p.r(C)p.r(U)p.r(C)p.r(G)p.r(G)p.r(A)p.r(C)p.r(A)p.r(C)p.r(G)p.r(U)p.d(C)p.d(T)}$$$RNA1{StrandType:ss}|RNA2{StrandType:as}$” yielded a normalised inhibition (eCFP-eYFP dual reporter) of 74.9%.
Substance “RNA1{r(A)p.r(G)p.r(A)p.r(C)p.r(C)p.r(A)p.r(U)p.r(G)p.r(A)p.r(A)p.r(C)p.r(C)p.r(G)p.r(G)p.r(G)p.r(C)p.r(G)p.r(G)p.r(A)p.d(T)p.d(T)}|RNA2{r(U)p.r(C)p.r(C)p.r(G)p.r(C)p.r(C)p.r(C)p.r(G)p.r(G)p.r(U)p.r(U)p.r(C)p.r(A)p.r(U)p.r(G)p.r(G)p.r(U)p.r(C)p.r(U)p.d(T)p.d(G)}$$$RNA1{StrandType:ss}|RNA2{StrandType:as}$” has a normalised inhibition (eCFP-eYFP dual reporter) of 78.8%.
“RNA1{r(A)p.r(G)p.r(C)p.r(U)p.r(C)p.r(A)p.r(A)p.r(G)p.r(G)p.r(A)p.r(C)p.r(U)p.r(U)p.r(C)p.r(G)p.r(G)p.r(G)p.r(A)p.r(C)p.d(T)p.d(T)}|RNA2{r(G)p.r(U)p.r(C)p.r(C)p.r(C)p.r(G)p.r(A)p.r(A)p.r(G)p.r(U)p.r(C)p.r(C)p.r(U)p.r(U)p.r(G)p.r(A)p.r(G)p.r(C)p.r(U)p.d(C)p.d(C)}$$$RNA1{StrandType:ss}|RNA2{StrandType:as}$” was tested, and the normalised inhibition (eCFP-eYFP dual reporter) was 64.7%.
For “RNA1{r(A)p.r(G)p.r(C)p.r(U)p.r(G)p.r(C)p.r(U)p.r(G)p.r(U)p.r(G)p.r(U)p.r(C)p.r(C)p.r(C)p.r(G)p.r(G)p.r(U)p.r(G)p.r(G)p.d(T)p.d(T)}|RNA2{r(C)p.r(C)p.r(A)p.r(C)p.r(C)p.r(G)p.r(G)p.r(G)p.r(A)p.r(C)p.r(A)p.r(C)p.r(A)p.r(G)p.r(C)p.r(A)p.r(G)p.r(C)p.r(U)p.d(G)p.d(C)}$$$RNA1{StrandType:ss}|RNA2{StrandType:as}$”, the normalised inhibition (eCFP-eYFP dual reporter) was 66%.
“RNA1{r(A)p.r(G)p.r(G)p.r(U)p.r(G)p.r(C)p.r(G)p.r(C)p.r(C)p.r(U)p.r(G)p.r(G)p.r(U)p.r(G)p.r(G)p.r(C)p.r(C)p.r(U)p.r(C)p.d(T)p.d(T)}|RNA2{r(G)p.r(A)p.r(G)p.r(G)p.r(C)p.r(C)p.r(A)p.r(C)p.r(C)p.r(A)p.r(G)p.r(G)p.r(C)p.r(G)p.r(C)p.r(A)p.r(C)p.r(C)p.r(U)p.d(T)p.d(G)}$$$RNA1{StrandType:ss}|RNA2{StrandType:as}$” gave a normalised inhibition (eCFP-eYFP dual reporter) of 71.2%.

Each substance was assayed against UBE2M (assay: reporter assay of Huesken 2005). Conditions: siRNA.
In the case of “sense rGrGrGrCrGrGrCrArCrCrArArGrGrGrCrArGrCdTdT / antisense rGrCrUrGrCrCrCrUrUrGrGrUrGrCrCrGrCrCrCdGdC”, the normalised inhibition (eCFP-eYFP dual reporter) is reported as 64.9%.
“sense rGrGrGrUrGrGrCrUrArCrArUrCrGrGrCrUrCrCdTdT / antisense rGrGrArGrCrCrGrArUrGrUrArGrCrCrArCrCrCdCdG” gave a normalised inhibition (eCFP-eYFP dual reporter) of 58.1%.
“sense rGrGrUrCrUrArUrCrArCrCrCrCrArArCrArUrUdTdT / antisense rArArUrGrUrUrGrGrGrGrUrGrArUrArGrArCrCdAdT” gave a normalised inhibition (eCFP-eYFP dual reporter) of 79.7%.
In the case of “sense rGrGrUrGrArArGrUrGrUrGrArGrArCrArArUrGdTdT / antisense rCrArUrUrGrUrCrUrCrArCrArCrUrUrCrArCrCdTdT”, the normalised inhibition (eCFP-eYFP dual reporter) is reported as 81.7%.
With “sense rGrUrCrArUrCrUrGrUrCrCrUrGrArUrGrArGrGdTdT / antisense rCrCrUrCrArUrCrArGrGrArCrArGrArUrGrArCdCdA” the normalised inhibition (eCFP-eYFP dual reporter) was 58.9%.
Work on “sense rGrUrCrCrUrGrArUrGrArGrGrGrCrUrUrCrUrAdTdT / antisense rUrArGrArArGrCrCrCrUrCrArUrCrArGrGrArCdAdG” yielded a normalised inhibition (eCFP-eYFP dual reporter) of 80.3%.
Work on “sense rGrUrCrCrUrUrArCrGrArUrArArArCrUrCrCrAdTdT / antisense rUrGrGrArGrUrUrUrArUrCrGrUrArArGrGrArCdTdG” yielded a normalised inhibition (eCFP-eYFP dual reporter) of 76.7%.
For “sense rGrUrGrArUrArUrCrArGrCrUrUrCrUrCrArGrAdTdT / antisense rUrCrUrGrArGrArArGrCrUrGrArUrArUrCrArCdAdC”, the normalised inhibition (eCFP-eYFP dual reporter) was 70.3%.
In the case of “sense rGrUrGrGrGrCrCrArGrGrGrUrUrArCrCrCrGrCdTdT / antisense rGrCrGrGrGrUrArArCrCrCrUrGrGrCrCrCrArCdCdT”, the normalised inhibition (eCFP-eYFP dual reporter) is reported as 56.4%.
For “sense rGrUrUrCrArGrUrUrUrUrArArGrGrUrGrGrGrCdTdT / antisense rGrCrCrCrArCrCrUrUrArArArArCrUrGrArArCdAdC”, the normalised inhibition (eCFP-eYFP dual reporter) was 53.9%.
“sense rUrArArGrGrUrGrGrGrCrCrArGrGrGrUrUrArCdTdT / antisense rGrUrArArCrCrCrUrGrGrCrCrCrArCrCrUrUrAdAdA” showed a normalised inhibition (eCFP-eYFP dual reporter) of 69.9%.
With “sense rUrArArUrUrUrArUrGrGrCrCrUrGrCrArGrUrAdTdT / antisense rUrArCrUrGrCrArGrGrCrCrArUrArArArUrUrAdTdG” the normalised inhibition (eCFP-eYFP dual reporter) was 67%.
Substance “sense rUrCrArCrCrCrCrArArCrArUrUrGrArCrCrUrCdTdT / antisense rGrArGrGrUrCrArArUrGrUrUrGrGrGrGrUrGrAdTdA” has a normalised inhibition (eCFP-eYFP dual reporter) of 65.4%.
In the case of “sense rUrCrArUrCrUrGrUrCrCrUrGrArUrGrArGrGrGdTdT / antisense rCrCrCrUrCrArUrCrArGrGrArCrArGrArUrGrAdCdC”, the normalised inhibition (eCFP-eYFP dual reporter) is reported as 57.5%.
“sense rUrCrUrCrUrUrCrUrUrGrGrArGrCrCrCrArArCdTdT / antisense rGrUrUrGrGrGrCrUrCrCrArArGrArArGrArGrAdTdA” was tested, and the normalised inhibition (eCFP-eYFP dual reporter) was 69.7%.
Work on “sense rUrCrUrUrCrUrUrGrGrArGrCrCrCrArArCrCrCdTdT / antisense rGrGrGrUrUrGrGrGrCrUrCrCrArArGrArArGrAdGdA” yielded a normalised inhibition (eCFP-eYFP dual reporter) of 56.1%.
For “sense rUrGrArArCrArArGrGrArGrGrCrCrGrCrArGrAdTdT / antisense rUrCrUrGrCrGrGrCrCrUrCrCrUrUrGrUrUrCrAdGdT”, the normalised inhibition (eCFP-eYFP dual reporter) was 65.9%.
For “sense rUrGrCrArGrArArCrArArCrCrGrGrCrGrGrCrUdTdT / antisense rArGrCrCrGrCrCrGrGrUrUrGrUrUrCrUrGrCrAdGdG”, the normalised inhibition (eCFP-eYFP dual reporter) was 67.6%.
“sense rUrUrCrUrArCrArArGrArGrUrGrGrGrArArGrUdTdT / antisense rArCrUrUrCrCrCrArCrUrCrUrUrGrUrArGrArAdGdC” showed a normalised inhibition (eCFP-eYFP dual reporter) of 68.9%.
In the case of “sense rUrUrUrGrUrGrUrUrCrArGrUrUrUrUrArArGrGdTdT / antisense rCrCrUrUrArArArArCrUrGrArArCrArCrArArAdCdT”, the normalised inhibition (eCFP-eYFP dual reporter) is reported as 51.1%.

— the OligoGym collection
Note: test concentration or dose not given here.
